Results reported in US12247032B2, “Substituted pyrazolo[1,5-a]pyrimidines as inhibitors of JAK kinases” (Genentech, Inc., priority 2019, dated 2025).
Read-outs that look alike come from different tables or passages of the source.

How the values were obtained:
[1] = test system: JAK1 (IL-13-stimulated STAT6 phosphorylation in BEAS-2B cells); experiment: P-STAT6 BEAS-2B+IL-13 cell assay; type: cell-based, human; conditions: 1 hour compound, IL-13 15 minutes, IC50 by four-parameter fit, read-out: Cellular JAK1 PSTAT6 BEAS2B + IL13
In short: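 BEAS-2B human bronchial epithelial cells preincubated 1 h at 37 °C with compound, then stimulated with human recombinant IL-13 for 15 min. Phospho-STAT6 (Tyr641) in lysates measured by MSD electrochemiluminescence immunoassay; IC50 from a four-parameter logistic fit of percent of control.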

[2] = test system: JAK1 pathway (P-STAT6 in TF-1 human erythroleukemia cells + IL-13); experiment: P-STAT6 TF-1+Interleukin-13 (IL-13) assay; type: cell-based; conditions: TF-1 cells, 30 minutes compound, IL-13 10 minutes, IC50 by four-parameter fit, read-out: Cellular PSTAT6 TF-1 + IL13
Procedure: (§1) TF-1 human erythroleukemia cells (ATCC®; Manassas, VA; Catalog No. CRL-2003™) were grown in Roswell Park Memorial Institute (RPMI) medium supplemented with 10% heat-inactivated fetal bovine serum (FBS), 2 ng/mL granulocyte-macrophage colony-stimulating factor, 1× non-essential amino acids (NEAA), and 1 mM sodium pyruvate. The day before the assay, the cultures were transferred to Opti-MEM™, 1×NEAA, 1 mM sodium pyruvate, and 0.5% charcoal-stripped FBS (starve medium). Inhibitor stock solutions (5 mM in DMSO) were serially diluted 1:2 in DMSO to generate a 10-point concentration titration (at 500× test concentration), which was further diluted by a 50-fold dilution in Assay Medium (RPMI containing 1×NEAA and 1 mM sodium pyruvate) to generate a 10× concentration titration (in 2% DMSO). The cells (300,000 cells/well in 35 μL of Assay Medium) were seeded in 384-well Greiner plates. Diluted inhibitor at 10× concentration (5 μL) was added to the cells and the plates were incubated for 30 minutes at 37° C. in a humidified incubator. Cells were stimulated with the human recombinant cytokine at the respective EC90 concentrations, as previously determined for each individual lot. For the phosphorylated signal transducer and activator of transcription 6 (P-STAT6) TF-1+Interleukin-13 (IL-13) assay, 10 μL of 250 ng/mL IL-13 (R&D Systems; Minneapolis, MN) was added to the cells, which were then incubated for 10 minutes at 37° C. For the P-STAT5 TF-1+Erythropoietin (EPO) assay, 10 μL of 110 IU/mL EPO (Gibco Life Technologies, Catalog No. PHC2054) was added to the cells, which were then incubated for 30 min at 37° C. For both assays, the incubation was followed by addition to the cells of 5 μL of ice-cold 10× cell lysis buffer (Cell Signaling Technologies; Danvers, MA; Catalog No. 9803S) containing 1 mM phenylmethylsulfonyl fluoride (PMSF). Assay plates were frozen at −80° C. for a minimum of 1 hour. In the IL-13 assay, P-STAT6 was measured by coating goat anti-rabbit (GAR) plates (Meso Scale Discovery [MSD]; Rockville, MD; Catalog No. MSD L21RA-1) with rabbit anti-human total STAT6 antibody (Cell Signaling Technologies; Catalog No. 9362S), incubating the cell lysates in the coated plates overnight at 4° C., and then detecting with mouse anti-P-STAT6 (Tyr641) Clone 16E12 antibody (MilliporeSigma; Burlington, MA; Catalog No. 05-590, custom labeled by MSD with SULFO-tag) using standard MSD plate processing, washing, and detection protocols. In the EPO assay, P-STAT5 was detected using the phospho-STAT5a,b Whole Cell Lysate Kit (MSD; Catalog No. K150IGD-1). The electrochemiluminescence (ECL) signal of wells was read on the MESO SECTOR S600 (MSD) reader.
(§2) Data analysis was performed by subtracting the negative control (cytokine stimulated and 20 μM control inhibitor-treated cells) mean ECL value from the ECL value of all wells, determining percent of control for test compound well ECL values relative to the positive control (cytokine stimulated and DMSO-treated cells) mean ECL value, and determining the IC50 for test compounds with a four-parameter logistic fit model as shown in Equation 4.

[3] = test system: JAK2 pathway (P-STAT5 in TF-1 human erythroleukemia cells + EPO); experiment: P-STAT5 TF-1+Erythropoietin (EPO) assay; type: cell-based; conditions: TF-1 cells, 30 minutes compound, EPO 30 min, IC50 by four-parameter fit, read-out: Cellular (JAK2 PSTAT5 TF1 + EPO)
Procedure: as §1, §2

Row | Structure (SMILES) | IC50 ([2]; Homo sapiens, TF-1, 0.5 h) | IC50 ([3]; Homo sapiens, TF-1, 0.5 h) | IC50 [2] | IC50 [3] | IC50 ([1]; Homo sapiens, BEAS-2B, 1 h) | IC50 [1]
1 | O=C(Nc1cn(Cc2nnn(C3CCNC3)n2)nc1-c1cc(OC(F)F)ccc1OC(F)F)c1cnn2cccnc12 (single isomer, unassigned) [Example 27, N-[3-[2,5-bis(difluoromethoxy)phenyl]-1-[(2-pyrrolidin-3-yltetrazol-5-yl)methyl]pyrazol-4-yl]pyrazolo[1,5-a]pyrimidine-3-carboxamide] | 13 nM | 17 nM | – | – | 12 nM | –
2 | O=C(Nc1cn(Cc2nnn(C3CCNC3)n2)nc1-c1cc(OC(F)F)ccc1OC(F)F)c1cnn2cccnc12 (single isomer, unassigned) [Example 28, N-[3-[2,5-bis(difluoromethoxy)phenyl]-1-[(2-pyrrolidin-3-yltetrazol-5-yl)methyl]pyrazol-4-yl]pyrazolo[1,5-a]pyrimidine-3-carboxamide] | – | – | 7.1 nM | 19 nM | – | 12 nM
3 | CN1CCC(N2CC(n3nnc(Cn4cc(NC(=O)c5cnn6cccnc56)c(-c5cc(OC(F)F)ccc5OC(F)F)n4)n3)C2)C1 (single isomer, unassigned) [Example 72, N-[3-[2,5-bis(difluoromethoxy)phenyl]-1-[[2-[1-(1-methylpyrrolidin-3-yl)azetidin-3-yl]tetrazol-5-yl]methyl]pyrazol-4-yl]pyrazolo[1,5-a]pyrimidine-3-carboxamide] | 39 nM | 51 nM | – | – | 36 nM | –
4 | O=C(Nc1cn(Cc2nnn(C3CNC3)n2)nc1-c1cc(Cl)ccc1OC(F)F)c1cnn2cccnc12 [Example 8, N-[1-[[2-(azetidin-3-yl)tetrazol-5-yl]methyl]-3-[5-chloro-2-(difluoromethoxy)phenyl]pyrazol-4-yl]pyrazolo[1,5-a]pyrimidine-3-carboxamide] | 8.4 nM | 13 nM | – | – | 9.3 nM | –
5 | O=C(Nc1cn(Cc2nnn(C3CNC3)n2)nc1-c1cc(OC(F)F)ccc1OC(F)F)c1cnn2cccnc12 [Example 11, N-[1-[[2-(azetidin-3-yl)tetrazol-5-yl]methyl]-3-[2,5-bis(difluoromethoxy)phenyl]pyrazol-4-yl]pyrazolo[1,5-a]pyrimidine-3-carboxamide] | 9.5 nM | 10 nM | – | – | 23 nM | –
6 | O=C(Nc1cn(Cc2nnnn2C2CNC2)nc1-c1cc(OC(F)F)ccc1OC(F)F)c1cnn2cccnc12 [Example 12, N-[1-[[1-(azetidin-3-yl)tetrazol-5-yl]methyl]-3-[2,5-bis(difluoromethoxy)phenyl]pyrazol-4-yl]pyrazolo[1,5-a]pyrimidine-3-carboxamide] | 22 nM | 51 nM | – | – | 31 nM | –
7 | NCCn1nnc(Cn2cc(NC(=O)c3cnn4cccnc34)c(-c3cc(OC(F)F)ccc3OC(F)F)n2)n1 [Example 13, N-[1-[[2-(2-aminoethyl)tetrazol-5-yl]methyl]-3-[2,5-bis(difluoromethoxy)phenyl]pyrazol-4-yl]pyrazolo[1,5-a]pyrimidine-3-carboxamide] | 18 nM | 10 nM | – | – | 11 nM | –
8 | NCCn1nnnc1Cn1cc(NC(=O)c2cnn3cccnc23)c(-c2cc(OC(F)F)ccc2OC(F)F)n1 [Example 14, N-[1-[[1-(2-aminoethyl)tetrazol-5-yl]methyl]-3-[2,5-bis(difluoromethoxy)phenyl]pyrazol-4-yl]pyrazolo[1,5-a]pyrimidine-3-carboxamide] | 45 nM | 46 nM | – | – | 39 nM | –
9 | CN(C)CCn1nnc(Cn2cc(NC(=O)c3cnn4cccnc34)c(-c3cc(OC(F)F)ccc3OC(F)F)n2)n1 [Example 16, N-[3-[2,5-bis(difluoromethoxy)phenyl]-1-[[2-[2-(dimethylamino)ethyl]tetrazol-5-yl]methyl]pyrazol-4-yl]pyrazolo[1,5-a]pyrimidine-3-carboxamide] | 12 nM | 12 nM | – | – | 18 nM | –
10 | O=C(Nc1cn(Cc2nnn(C3CCNCC3)n2)nc1-c1cc(OC(F)F)ccc1OC(F)F)c1cnn2cccnc12 [Example 18, N-[3-[2,5-bis(difluoromethoxy)phenyl]-1-[[2-(4-piperidyl)tetrazol-5-yl]methyl]pyrazol-4-yl]pyrazolo[1,5-a]pyrimidine-3-carboxamide] | 20 nM | 19 nM | – | – | 35 nM | –
11 | CNCCn1nnc(Cn2cc(NC(=O)c3cnn4cccnc34)c(-c3cc(OC(F)F)ccc3OC(F)F)n2)n1 [Example 20, N-[3-[2,5-bis(difluoromethoxy)phenyl]-1-[[2-[2-(methylamino)ethyl]tetrazol-5-yl]methyl]pyrazol-4-yl]pyrazolo[1,5-a]pyrimidine-3-carboxamide] | 45 nM | 15 nM | – | – | 30 nM | –

Continued, in another order:

Row | IC50 ([2]; Homo sapiens, TF-1, 0.5 h) | IC50 ([3]; Homo sapiens, TF-1, 0.5 h) | IC50 [2] | IC50 [3] | Structure (SMILES) | IC50 ([1]; Homo sapiens, BEAS-2B, 1 h) | IC50 [1]
12 | 5 nM | 13 nM | – | – | CN1CC(n2nnc(Cn3cc(NC(=O)c4cnn5cccnc45)c(-c4cc(Cl)ccc4OC(F)F)n3)n2)C1 [Example 7, N-[3-[5-chloro-2-(difluoromethoxy)phenyl]-1-[[2-(1-methylazetidin-3-yl)tetrazol-5-yl]methyl]pyrazol-4-yl]pyrazolo[1,5-a]pyrimidine-3-carboxamide] | 9.8 nM | –
13 | 4 nM | 5.1 nM | – | – | CN1CC(n2nnc(Cn3cc(NC(=O)c4cnn5cccnc45)c(-c4cc(OC(F)F)ccc4OC(F)F)n3)n2)C1 [Example 10, N-[3-[2,5-bis(difluoromethoxy)phenyl]-1-[[2-(1-methylazetidin-3-yl)tetrazol-5-yl]methyl]pyrazol-4-yl]pyrazolo[1,5-a]pyrimidine-3-carboxamide] | 17 nM | –
14 | 3.4 nM | 7.2 nM | – | – | CN1CC(n2nnnc2Cn2cc(NC(=O)c3cnn4cccnc34)c(-c3cc(Cl)ccc3OC(F)F)n2)C1 [Example 15, N-[3-[5-chloro-2-(difluoromethoxy)phenyl]-1-[[1-(1-methylazetidin-3-yl)tetrazol-5-yl]methyl]pyrazol-4-yl]pyrazolo[1,5-a]pyrimidine-3-carboxamide] | 8.6 nM | –
15 | 2.7 nM | 9.7 nM | – | – | CN(C)CCn1nnnc1Cn1cc(NC(=O)c2cnn3cccnc23)c(-c2cc(OC(F)F)ccc2OC(F)F)n1 [Example 17, N-[3-[2,5-bis(difluoromethoxy)phenyl]-1-[[1-[2-(dimethylamino)ethyl]tetrazol-5-yl]methyl]pyrazol-4-yl]pyrazolo[1,5-a]pyrimidine-3-carboxamide] | 19 nM | –
16 | 7 nM | 21 nM | – | – | CNCCn1nnnc1Cn1cc(NC(=O)c2cnn3cccnc23)c(-c2cc(OC(F)F)ccc2OC(F)F)n1 [Example 19, N-[3-[2,5-bis(difluoromethoxy)phenyl]-1-[[1-[2-(methylamino)ethyl]tetrazol-5-yl]methyl]pyrazol-4-yl]pyrazolo[1,5-a]pyrimidine-3-carboxamide] | 21 nM | –
